US8946216B2, “Indazole derivatives useful as ERK inhibitors” (Merck Sharp & Dohme Corp., priority 2010, dated 2015)

Columns and labels:
[1] = target: fully phosphorylated, active Mouse ERK2 protein (Mus musculus, UniProt P63085); test: Active ERK2 (aERK) assay, IMAP format; type: biochemical; settings: 30 min preincubation; 1 μM substrate peptide, 30 μM ATP; fluorescence polarization; read-out: aERK2 IC50
Experimental: Active ERK2 (aERK) Assay:
Activated ERK2 activity was also determined in the IMAP assay format using the procedure outlined above. 1 μl of 25× compound was added to 14 μl of kinase buffer containing 0.25 ng fully phosphorylated, active Mouse ERK2 protein. Following a 30 minute incubation, the reactions were initiated by addition of 10 μl of kinase buffer containing 1 μM ERK2 IMAP substrate peptide (0.9 μM unlabeled IPTTPITTTYFFFK--CONH2 and 100 nM IPTTPITTTYFFFK(5-carboxyfluorescein)-CONH2) and 30 μM ATP. Reactions proceeded for 30 minutes before termination by addition of 60 μl IMAP detection beads in binding buffer. Plates were read as above after 30 minute binding equilibration. Active compounds were reconfirmed in an independent assay.

[2] = target: ERK protein (Homo sapiens, UniProt P28482); test: TdF (Temperature Dependence Fluorescence, thermal shift) assay for ERK; type: binding; settings: read-out: TdF Kd; 3 μM ERK protein, 15, 50 or 100 μM compound, Sypro Orange; Kd calculated from ΔTm; uncertainty estimated ±50%
Sequence of ERK protein (P28482 2-360): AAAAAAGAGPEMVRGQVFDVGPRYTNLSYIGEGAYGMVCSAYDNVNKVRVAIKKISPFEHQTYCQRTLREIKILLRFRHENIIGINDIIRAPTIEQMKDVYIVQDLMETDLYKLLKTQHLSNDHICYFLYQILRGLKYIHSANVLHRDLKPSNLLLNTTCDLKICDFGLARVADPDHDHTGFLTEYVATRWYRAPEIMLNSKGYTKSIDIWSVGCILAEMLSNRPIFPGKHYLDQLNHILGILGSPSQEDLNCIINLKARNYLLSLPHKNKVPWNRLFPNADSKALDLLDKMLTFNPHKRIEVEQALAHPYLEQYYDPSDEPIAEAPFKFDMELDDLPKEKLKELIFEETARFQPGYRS
In short: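 Thermal shift with Sypro Orange: samples containing 3 μM in 2% final DMSO heated 30 to 90 °C at 1 °C/min, fluorescence at ex 490/em 560 nm. Kd derived from ΔTm versus protein alone by the Brandts–Lin model, with ΔCpL set to 0 and ΔHL to −7 kcal/mol; uncertainty ±50%.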

[3] = target: unphosphorylated Mouse ERK2 protein (inactive ERK2) (Mus musculus, UniProt P63085); test: Coupled ERK2 (cERK) assay, coupled MEK1/ERK2 IMAP; type: biochemical; settings: 30 min preincubation with inactive ERK2, then activation by human MEK1; 30 μM ATP; fluorescence polarization; read-out: cERK2 IC50
Sequence of unphosphorylated Mouse ERK2 protein (inactive ERK2) (P63085 whole entry): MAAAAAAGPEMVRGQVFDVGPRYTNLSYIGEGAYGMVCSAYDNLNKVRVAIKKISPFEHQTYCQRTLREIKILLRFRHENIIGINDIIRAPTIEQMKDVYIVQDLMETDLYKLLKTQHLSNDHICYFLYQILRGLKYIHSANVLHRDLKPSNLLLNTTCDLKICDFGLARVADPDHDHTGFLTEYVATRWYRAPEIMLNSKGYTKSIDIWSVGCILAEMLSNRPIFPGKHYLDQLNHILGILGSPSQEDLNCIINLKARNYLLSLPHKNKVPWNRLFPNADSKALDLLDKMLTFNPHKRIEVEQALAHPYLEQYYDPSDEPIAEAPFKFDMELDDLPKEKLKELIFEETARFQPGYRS
In short: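 Compound was preincubated with 0.4 ng unphosphorylated mouse ERK2 in Tris pH 7.2/MgCl2/DTT buffer (6.7% DMSO). ERK2 was then activated for 1 h by 2 ng active human MEK1 with 4 μM IMAP substrate peptide (100 nM fluorescein-labelled) and 30 μM ATP (final, 4% DMSO). Phosphorylation was read by IMAP bead fluorescence polarization after 30 min binding.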

Sequence of fully phosphorylated, active Mouse ERK2 protein (P63085 whole entry): as above

| IC50 [1] [nM] | Kd [2] [nM] | IC50 [3] [nM] | Structure (SMILES) |
| --- | --- | --- | --- |
| 175 | 6 | 72.3 | O=C(Nc1ccc2[nH]nc(-c3ccncc3)c2c1)[C@@H]1CN(Cc2ccccc2F)CCS1 [Compound 60, 4-[(2-FLUOROPHENYL)METHYL]-N-[3-(4-PYRIDINYL)-1H-INDAZOL-5-YL]-2(S)-THIOMORPHOLINECARBOXAMIDE] |
| 8.1 | 5 | 19.9 | O=C(Nc1ccc2[nH]nc(-c3ccncc3)c2c1)[C@H]1CN(Cc2ccccc2F)CCS1 [Compound 61, 4-[(2-FLUOROPHENYL)METHYL]-N-[3-(4-PYRIDINYL)-1H-INDAZOL-5-YL]-2(R)-THIOMORPHOLINECARBOXAMIDE] |
| 211 | 13.5 | 121 | CSC1(C(=O)Nc2ccc3[nH]nc(-c4ccncc4)c3c2)CCN(Cc2ccccc2F)C1 (stereo not drawn) [Compound 63, 1-[(2-FLUOROPHENYL)METHYL]-3-(METHYLTHIO)-N-[3-(4-PYRIDINYL)-1H-INDAZOL-5-YL]-3-PYRROLIDINECARBOXAMIDE] |
| 245 | 35.6 | 171 | O=C(Nc1ccc2[nH]nc(-c3ccncc3)c2c1)C1CCN(Cc2ccccc2)C1 (stereo not drawn) [Compound 64, 1-(PHENYLMETHYL)-N-[3-(4-PYRIDINYL)-1H-INDAZOL-5-YL]-3-PYRROLIDINECARBOXAMIDE] |
| 100 | 29.4 | 77.1 | O=C(Nc1ccc2[nH]nc(-c3ccncc3)c2c1)C1CCN(Cc2ccccc2F)C1 (stereo not drawn) [Compound 65, 1-[(2-FLUOROPHENYL)METHYL]-N-[3-(4-PYRIDINYL)-1H-INDAZOL-5-YL]-3-PYRROLIDINECARBOXAMIDE] |
| 2.7 | 4.4 | 8.3 | O=C(Nc1ccc2[nH]nc(-c3ccncc3)c2c1)C1CN(Cc2ccccc2F)CC[S+]1[O-] (stereo not drawn) [Compound 69, 4-[(2-FLUOROPHENYL)METHYL]-N-[3-(4-PYRIDINYL)-1H-INDAZOL-5-YL]-2-THIOMORPHOLINECARBOXAMIDE, 1-OXIDE] |
| 13.9 | 12 | 17.7 | O=C(Nc1ccc2[nH]nc(-c3ccncc3)c2c1)C1CN(Cc2ccccc2F)CCS1(=O)=O (stereo not drawn) [Compound 70, 4-[(2-FLUOROPHENYL)METHYL]-N-[3-(4-PYRIDINYL)-1H-INDAZOL-5-YL]-2-THIOMORPHOLINECARBOXAMIDE, 1,1-DIOXIDE] |

More lines, now with the values behind:

| Structure (SMILES) | IC50 [1] [nM] | Kd [2] [nM] | IC50 [3] [nM] |
| --- | --- | --- | --- |
| O=C(Nc1ccc2[nH]nc(-c3ccncc3)c2c1)[C@@H]1CN(Cc2ccccc2)CCN1 [Compound 57, 4-(PHENYLMETHYL)-N-[3-(4-PYRIDINYL)-1H-INDAZOL-5-YL]-2(S)-PIPERAZINECARBOXAMIDE] | 52 | 49 | 61.8 |
| O=C(Nc1ccc2[nH]nc(-c3ccncc3)c2c1)C1CN(C(=O)OCc2ccccc2)CCN1 (stereo not drawn) [Compound 58, PHENYLMETHYL 3-[[[3-(4-PYRIDINYL)-1H-INDAZOL-5-YL]AMINO]CARBONYL]-1-PIPERAZINECARBOXYLATE] | 2200 | 602 | 960 |
| O=C(Nc1ccc2[nH]nc(-c3ccncc3)c2c1)[C@H]1CN(Cc2ccccc2)CCN1 [Compound 59, 4-(PHENYLMETHYL)-N-[3-(4-PYRIDINYL)-1H-INDAZOL-5-YL]-2(R)-PIPERAZINECARBOXAMIDE] | 16.3 | 21 | 21.6 |
| O=C(Nc1ccc2[nH]nc(-c3ccncc3)c2c1)C1(CO)CCCN(Cc2ccccc2)C1 (stereo not drawn) [Compound 66, 3-(HYDROXYMETHYL)-1-(PHENYLMETHYL)-N-[3-(4-PYRIDINYL)-1H-INDAZOL-5-YL]-3-PIPERIDINECARBOXAMIDE] | 439 | 104 | 1000 |
| O=C(Nc1ccc2[nH]nc(-c3ccncc3)c2c1)C1CNCC(c2ccccc2)C1 (stereo not drawn) [Compound 79, 5-PHENYL-N-[3-(4-PYRIDINYL)-1H-INDAZOL-5-YL]-3-PIPERIDINECARBOXAMIDE] | 124 | 8 | 69.4 |
